Results taken from PubChem BioAssay (NCI).
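All cell lines were grown in 96-well plates and treated with compound for 48 hours. At the TGI there is no net growth.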

What was measured:
Assay in all cases: NCI-60 cell line screen, 48 h
NCI-H226 lung = tested on: NCI-H226 lung
RXF-631 renal = tested on: RXF-631 renal
HCC-2998 colon = tested on: HCC-2998 colon
LXFL 529 NSCLC = tested on: LXFL 529 NSCLC
SNB-78 CNS = tested on: SNB-78 CNS
NCI/ADR-RES ovarian = tested on: NCI/ADR-RES ovarian
786-0 renal = tested on: 786-0 renal
MOLT-4 leukemia = tested on: MOLT-4 leukemia
HOP-92 NSCLC = tested on: HOP-92 NSCLC
BT-549 breast = tested on: BT-549 breast
OVCAR-8 ovarian = tested on: OVCAR-8 ovarian
LOX IMVI melanoma = tested on: LOX IMVI melanoma
UACC-62 melanoma = tested on: UACC-62 melanoma
MALME-3M melanoma = tested on: MALME-3M melanoma
ACHN renal = tested on: ACHN renal
UO-31 renal = tested on: UO-31 renal
SN12C renal = tested on: SN12C renal
SF-539 CNS = tested on: SF-539 CNS
OVCAR-3 ovarian = tested on: OVCAR-3 ovarian
COLO 205 colon = tested on: COLO 205 colon
SW-620 colon = tested on: SW-620 colon
M19-MEL melanoma = tested on: M19-MEL melanoma
HOP-62 NSCLC = tested on: HOP-62 NSCLC
EKVX NSCLC = tested on: EKVX NSCLC
UACC-257 melanoma = tested on: UACC-257 melanoma
DMS 114 small cell lung = tested on: DMS 114 small cell lung
KM12 colon = tested on: KM12 colon
SNB-75 CNS = tested on: SNB-75 CNS
IGROV1 ovarian = tested on: IGROV1 ovarian
SF-268 CNS = tested on: SF-268 CNS
CCRF-CEM leukemia = tested on: CCRF-CEM leukemia
M14 melanoma = tested on: M14 melanoma
SK-OV-3 ovarian = tested on: SK-OV-3 ovarian
RPMI-8226 leukemia = tested on: RPMI-8226 leukemia
K-562 leukemia = tested on: K-562 leukemia
A549 NSCLC = tested on: A549 NSCLC
OVCAR-5 ovarian = tested on: OVCAR-5 ovarian
OVCAR-4 ovarian = tested on: OVCAR-4 ovarian
CAKI-1 renal = tested on: CAKI-1 renal
HS 578T breast = tested on: HS 578T breast
MDA-N = tested on: MDA-N
SR leukemia = tested on: SR leukemia
NCI-H522 lung = tested on: NCI-H522 lung
RXF 393 renal = tested on: RXF 393 renal
DMS 273 small cell lung = tested on: DMS 273 small cell lung
DU-145 prostate = tested on: DU-145 prostate
HCT-116 colon = tested on: HCT-116 colon
A498 renal = tested on: A498 renal
U251 CNS = tested on: U251 CNS
MCF7 breast = tested on: MCF7 breast
SK-MEL-28 melanoma = tested on: SK-MEL-28 melanoma
SNB-19 CNS = tested on: SNB-19 CNS
SF-295 CNS = tested on: SF-295 CNS
HCT-15 colon = tested on: HCT-15 colon
HOP-18 NSCLC = tested on: HOP-18 NSCLC
DLD-1 colon = tested on: DLD-1 colon
SK-MEL-2 melanoma = tested on: SK-MEL-2 melanoma
PC-3 prostate = tested on: PC-3 prostate
NCI-H460 lung = tested on: NCI-H460 lung
HT29 colon = tested on: HT29 colon
MDA-MB-231 breast = tested on: MDA-MB-231 breast
TK-10 renal = tested on: TK-10 renal
KM20L2 colon = tested on: KM20L2 colon
NCI-H23 lung = tested on: NCI-H23 lung
SK-MEL-5 melanoma = tested on: SK-MEL-5 melanoma
MDA-MB-435 = tested on: MDA-MB-435

O=C1/C(=C/c2ccc(O)cc2)CCC1CNc1ccc(Cl)cc1 (stereo unspecified)
TGI (NCI-H226 lung): 25.8 µM
TGI (RXF-631 renal): 32.1 µM
TGI (HCC-2998 colon): 14.8 µM
TGI (LXFL 529 NSCLC): 2.39 µM
TGI (SNB-78 CNS): 33.8 µM
TGI (NCI/ADR-RES ovarian): 20.1 µM
TGI (786-0 renal): 4.58 µM
TGI (MOLT-4 leukemia): 6.45 µM
TGI (HOP-92 NSCLC): 28.4 µM
TGI (BT-549 breast): 26.5 µM
TGI (OVCAR-8 ovarian): 7.1 µM
TGI (LOX IMVI melanoma): 7.24 µM
TGI (UACC-62 melanoma): 5.86 µM
TGI (MALME-3M melanoma): 8.57 µM
TGI (ACHN renal): 11.6 µM
TGI (UO-31 renal): 9.82 µM
TGI (SN12C renal): 9.25 µM
TGI (SF-539 CNS): 15.5 µM
TGI (OVCAR-3 ovarian): 6.1 µM
TGI (COLO 205 colon): 3.24 µM
TGI (SW-620 colon): 3.03 µM
TGI (M19-MEL melanoma): 12.5 µM
TGI (HOP-62 NSCLC): 20.7 µM
TGI (EKVX NSCLC): 21.5 µM
TGI (UACC-257 melanoma): 11.7 µM
TGI (DMS 114 small cell lung): 9.02 µM
TGI (KM12 colon): 8.45 µM
TGI (SNB-75 CNS): 29.7 µM
TGI (IGROV1 ovarian): 15.1 µM
TGI (SF-268 CNS): 19.8 µM
TGI (CCRF-CEM leukemia): 11.2 µM
TGI (M14 melanoma): 3.57 µM
TGI (SK-OV-3 ovarian): 20.9 µM
TGI (RPMI-8226 leukemia): 10.8 µM
TGI (K-562 leukemia): 10.2 µM
TGI (A549 NSCLC): 21.6 µM
TGI (OVCAR-5 ovarian): 23.5 µM
TGI (OVCAR-4 ovarian): 8.86 µM
TGI (CAKI-1 renal): 8.84 µM
TGI (HS 578T breast): > 100 µM
TGI (MDA-N): 20.9 µM
TGI (SR leukemia): 5.51 µM
TGI (NCI-H522 lung): 2.49 µM
TGI (RXF 393 renal): 15.6 µM
TGI (DMS 273 small cell lung): 12.1 µM
TGI (DU-145 prostate): 26.2 µM
TGI (HCT-116 colon): 5.77 µM
TGI (A498 renal): 28.4 µM
TGI (U251 CNS): 21.3 µM
TGI (MCF7 breast): 6.82 µM
TGI (SK-MEL-28 melanoma): 24.2 µM
TGI (SNB-19 CNS): 28.6 µM
TGI (SF-295 CNS): 16.7 µM
TGI (HCT-15 colon): 2.83 µM
TGI (HOP-18 NSCLC): 13.5 µM
TGI (DLD-1 colon): 2.97 µM
TGI (SK-MEL-2 melanoma): 28.7 µM
TGI (PC-3 prostate): 18.2 µM
TGI (NCI-H460 lung): 23 µM
TGI (HT29 colon): 14.9 µM
TGI (MDA-MB-231 breast): 9.56 µM
TGI (TK-10 renal): 10.3 µM
TGI (KM20L2 colon): 14.2 µM
TGI (NCI-H23 lung): 24.3 µM
TGI (SK-MEL-5 melanoma): 20.8 µM
TGI (MDA-MB-435): 17.3 µM
